Experimental findings from EP1914235A1, “CHIRAL TETRA-HYDRO BETA-CARBOLINE DERIVATIVES AND APPLICATIONS THEREOF AS ANTIPARASITIC COMPOUNDS” (Université de Lille 2 Droit et Santé, priority 2006, dated 2008) are described below.

Converted amounts (≈) assume the structure as drawn. Where two headings read alike, the source gives them in different places.

The test system of one experiment is P. falciparum K1 strain. Nature of the experiment: [3H]hypoxanthine drug sensitivity assay, K1 strain. As to conditions: Plasmodium falciparum. The class given is cell-based. How it is done:
(§1) The cultures are naturally asynchronous (65-75% ring stage) and are maintained in continuous log phase growth in RPMI-1640 medium (as developed by Moore et. al. at Roswell Park Memorial Institute, sold by Sigma Aldrich) supplemented with 5% washed human A+ erythrocytes, 25 mM Hepes, […] NaHCO3, and AlbuMAXII (lipid-rich bovine serum albumin) sold GIBCO, Grand Island, NY (CM). All cultures and assays were conducted at 37°C under an atmosphere of 5% CO2 and 5% O2, with a balance of N2.
(§2) The compounds were further diluted to the appropriate concentration using complete medium RPMI-1640 supplemented with 15nM cold hypoxanthine and AlbuMAXII.
(§3) Assays were performed in sterile 96-well microtitre plates; each plate contained 100 µl of parasite culture (0.5% parasitemia, 2.5% hematocrit). Each compound was tested in triplicate and parasite growth compared to control and blank (uninfected erythrocytes) wells. After 24h of incubation at 37°C, […] of [^3H]hypoxanthine was added to each well. Cultures were incubated for a further 24 h before they were harvested onto glass-fiber filter mats. The radioactivity was counted using a Wallac Microbeta® 1450 scintillation counter. The results were recorded as counts per minute (CPM) per well at each compound concentration, control and blank wells. Percentage inhibition was calculated from comparison to blank and control wells, and IC50 values calculated using Microsoft XLFit ® line fitting software (IDBS, UK).
(§4) Both the 3D7 clone and the K1 line were used. The compounds were diluted three-fold over at 12 different concentrations with an appropriate starting concentration based on the preliminary screen. The IC50 was determined by a sigmoidal dose response analysis using Microsoft XLFit™ (IDBS, UK).

The subject of experiment [1] is P. falciparum 3D7 clone of NF54. Nature of the experiment: [3H]hypoxanthine drug sensitivity assay, 3D7 clone. As to conditions: Plasmodium falciparum, read-out: IC50 3D7(µg/ml). The experiment is classed as cell-based. On the procedure:
as §1, §2
as §3, with “The results were recorded as counts per minute (CPM) per well at each compound concentration, control and blank wells.” left out
The preliminary screen used the 3D7 strain. The compounds were tested at 6 concentrations (30, 10, 3, 1, 0.3, and 0.1 µg/ml).
as §4

Experiment [2] deals with Plasmodium berghei ANKA strain. Nature of the experiment: In vivo antiparasitic activity in infected mice (4-day dosing, parasitemia on day 5). Conditions: mice infected with P. berghei ANKA; for Activity at the dose 50 mg/kg (%): 50 mg/kg every day for 4 days. How it is done:
Female mice (TFW or BALB/c, specific pathogen free), 18-20 g, or
Infection: Blood was taken from donor mice and diluted in RPMI-1640 medium to a parasitemia of 1% (the equivalent of 1x10^7 infected erythrocytes/ml) whilst kept on ice. An inoculum of 0.2 ml was administered to each mouse by the intravenous route. At 2-4 hours post-inoculation dosing commences.
Evaluation endpoint: On day 5 blood smears of all animals (2 slides/mouse) were prepared, fixed with methanol and stained with 10% Giemsa's stain. Parasitemia was determined microscopically by counting 1000 red blood cells under oil immersion at 1000x magnification.
Each of the tested compounds of formula (I) according to the invention was prepared as a stock solution of 5 mg/ml in 10% DMSO/PBS. Insoluble compounds of formula (I) were milled with stainless steel balls for up to 24 hours to reduce particle size. Fresh dilutions were prepared each day. The route of administration of tested compounds is intra peritoneal (i.p.).
Compounds were formulated at 10 mg/kg or at 50 mg/kg in a standard suspension vehicle (0.5% carboxymethylcellulose, 0.5% benzyl alcohol, 0.4% Tween® 80 in 0.9% NaCl) for both oral and i.p. administration.
Dosing was over a 4 day period as above, and evaluation was also as above.

The mark [3] stands for this setting: P. falciparum 3D7, sensitive to all anti-malarials, 48 h, [3H]hypoxanthine uptake.

For `CCN(CC)CCCC(C)Nc1ccnc2cc(Cl)ccc12` (stereo not drawn) [Chloroquine, reference compound], the IC50 in the experiment with P. falciparum K1 strain (K1) was 0.13 to 0.21 µg/mL (≈ 0.406 to 0.656 µM).
In the case of `O=C1[C@H]2Cc3c([nH]c4ccccc34)[C@@H](c3ccc4c(c3)OCO4)N2C(=O)CN1[C@@H]1CCN(Cc2ccccc2)C1` [Compound 6, (6R,12aR)-6-Benzo[1,3]dioxol-5-yl-2-((R)-1-benzyl-pyrrolidin-3-yl)-2,3,6,7,12,12a-hexahydro-pyrazino[1',2':1,6]pyrido [3,4-b] indole-1,4-dione], the IC50 in experiment [1] (setting [3]) is 0.1 µg/mL (≈ 0.187 µM); in the experiment with P. falciparum K1 strain (K1, read-out: IC50 K1), 0.12 µg/mL (≈ 0.224 µM). The “Activity at the dose 50 mg/kg (%)” value in experiment [2] is 43%.
Turning to `O=C1[C@H]2Cc3c([nH]c4ccccc34)[C@@H](c3ccc4c(c3)OCO4)N2C(=O)CN1C1CCN(Cc2ccccc2)CC1` [Compound 10, (6R,12aR)-6-Benzo[1,3]dioxol-5-yl-2-(1-benzyl-piperidin-4-yl)-2,3,6,7,12,12a-hexahydro-pyrazino[1',2':1,6]pyrido[3,4-b]indole-1,4-dione], the IC50 in experiment [1] (setting [3]) came to 0.27 µg/mL (≈ 0.492 µM); in the experiment on P. falciparum K1 strain (K1, read-out: IC50 K1), 0.01 µg/mL (≈ 0.0182 µM). In addition, the “Activity at the dose 10 mg/kg (%)” value in experiment [2] (10 mg/kg every day for 4 days) amounted to 15%. In experiment [2], the “Activity at the dose 50 mg/kg (%)” value came to 31%.
Consider `O=C1[C@H]2Cc3c([nH]c4ccccc34)[C@H](c3ccc4c(c3)OCO4)N2C(=O)CN1[C@@H]1CCN(Cc2ccccc2)C1` [Compound 14, (6S,12aR)-6-Benzo[1,3]dioxol-5-yl-2-((R)-1-benzyl-pyrrolidin-3-yl)-2,3,6,7,12,12a-hexahydro-pyrazino[1',2':1,6]pyrido [3,4-b]indole-1,4-dione], for which the IC50 in experiment [1] (setting [3]) turned out to be 0.29 µg/mL (≈ 0.542 µM); in the experiment on P. falciparum K1 strain (K1, read-out: IC50 K1), 1.03 µg/mL (≈ 1.93 µM).
`CN(CCN1CC(=O)N2[C@H](c3ccc4c(c3)OCO4)c3[nH]c4ccccc4c3C[C@@H]2C1=O)Cc1ccccc1` [Compound 15, (6R,12aR)-6-Benzo[1,3]dioxol-5-yl-2-[2-(benzyl-methyl-amino)-ethyl]-2,3,6,7,12,12a-hexahydro-pyrazino[1',2':1,6]pyrido [3,4-b]indole-1,4-dione]: the IC50 worked out at 0.6 µg/mL (≈ 1.15 µM) in experiment [1] (setting [3]) and 0.4 µg/mL (≈ 0.765 µM) in the experiment with P. falciparum K1 strain (K1, read-out: IC50 K1).
For `CN(CCN1CC(=O)N2[C@@H](c3ccc4c(c3)OCO4)c3[nH]c4ccccc4c3C[C@@H]2C1=O)Cc1ccccc1` [Compound 16, (6S,12aR)-6-Benzo[1,3]dioxol-5-yl-2-[2-(benzyl-methyl-amino)-ethyl]-2,3,6,7,12,12a-hexahydro-pyrazino[1',2':1,6]pyrido [3,4-b]indole-1,4-dione], the IC50 in experiment [1] was 0.3 µg/mL (≈ 0.574 µM); in the experiment on P. falciparum K1 strain (K1, read-out: IC50 K1 (µg/ml)) it was 0.6 µg/mL (≈ 1.15 µM).
Consider `CN(CCCN1CC(=O)N2[C@H](c3ccc4c(c3)OCO4)c3[nH]c4ccccc4c3C[C@@H]2C1=O)Cc1ccccc1` [Compound 17, (6R,12aR)-6-Benzo[1,3]dioxol-5-yl-2-[3-(benzyl-methyl-amino)-propyl]-2,3,6,7,12,12a-hexahydro-pyrazino[1',2':1,6]pyrido [3,4-b]indole-1,4-dione], for which the IC50 was determined as 0.98 µg/mL (≈ 1.83 µM) in experiment [1] (setting [3]) and 0.19 µg/mL (≈ 0.354 µM) in the experiment with P. falciparum K1 strain (K1, read-out: IC50 K1).
Consider `CN(CCCN1CC(=O)N2[C@@H](c3ccc4c(c3)OCO4)c3[nH]c4ccccc4c3C[C@@H]2C1=O)Cc1ccccc1` [Compound 18, (6S,12aR)-6-Benzo[1,3]dioxol-5-yl-2-[3-(benzyl-methyl-amino)-propyl]-2,3,6,7,12,12a-hexahydro-pyrazino[1',2':1,6]pyrido [3,4-b]indole-1,4-dione], for which the IC50 was found to be 1.34 µg/mL (≈ 2.5 µM) in experiment [1] and 0.28 µg/mL (≈ 0.522 µM) in the experiment with P. falciparum K1 strain (K1, read-out: IC50 K1 (µg/ml)).
For the compound `COc1ccc(CN2CC[C@@H](N3CC(=O)N4[C@H](c5ccc6c(c5)OCO6)c5[nH]c6ccccc6c5C[C@@H]4C3=O)C2)cc1` [Compound 31, (6R,12aR)-6-Benzo[1,3]dioxol-5-yl-2-[(R)-1-(4-methoxy-benzyl)-pyrrolidin-3-yl]-2,3,6,7,12,12a-hexahydro-pyrazino[1',2':1,6]pyrido[3,4-b]indole-1,4-dione], the IC50 in experiment [1] (setting [3]) stood at 0.23 µg/mL (≈ 0.407 µM); in the experiment with P. falciparum K1 strain (K1, read-out: IC50 K1), 0.13 µg/mL (≈ 0.23 µM).
On to `O=C1[C@H]2Cc3c([nH]c4ccccc34)[C@@H](c3ccc4c(c3)OCO4)N2C(=O)CN1[C@@H]1CCN(Cc2ccc3c(c2)OCO3)C1` [Compound 33, (6R,12aR)-6-Benzo[1,3]dioxol-5-yl-2-((R)-1-benzo[1,3]dioxol-5-ylmethyl-pyrrolidin-3-yl)-2,3,6,7,12,12a-hexahydro-pyrazino[1',2':1,6]pyrido[3,4-b]indole-1,4-dione], for which the IC50 in experiment [1] (setting [3]) worked out at 0.17 µg/mL (≈ 0.294 µM); in the experiment on P. falciparum K1 strain (K1, read-out: IC50 K1), 0.16 µg/mL (≈ 0.277 µM).
For `CC(C)(C)OC(=O)NCCN1CC[C@@H](N2CC(=O)N3[C@H](c4ccc5c(c4)OCO5)c4[nH]c5ccccc5c4C[C@@H]3C2=O)C1` [Compound 35, {2-[(R)-3-((6R,12aR)-6-Benzo[1,3]dioxol-5-yl-1,4-dioxo-3,4,6,7,12,12a-hexahydro-1H-pyrazino[1',2':1,6]pyrido[3,4-b]indol-2-yl)-pyrrolidin-1-yl]-ethyl)-carbamic acid tert-butyl ester], in that order: 0.07 µg/mL (≈ 0.119 µM) and 0.015 µg/mL (≈ 0.0255 µM).
Take `O=C1[C@H]2Cc3c([nH]c4ccccc34)[C@@H](c3ccc4nsnc4c3)N2C(=O)CN1[C@@H]1CCN(Cc2ccccc2)C1` [Compound 70c, (6R,12aR)-6-Benzo[1,2,5]thiadiazol-5-yl-2-((R)-1-benzyl-pyrrolidin-3-yl)-2,3,6,7,12,12a-hexahydro-pyrazino[1',2':1,6] pyrido[3,4-b]indole-1,4-dione]: the IC50 in experiment [1] (setting [3]) stood at 0.13 µg/mL (≈ 0.237 µM); with P. falciparum K1 strain (K1, read-out: IC50 K1), 0.15 µg/mL (≈ 0.273 µM).
Consider `O=C1[C@H]2Cc3c([nH]c4ccccc34)[C@H](c3ccc4nsnc4c3)N2C(=O)CN1[C@@H]1CCN(Cc2ccccc2)C1` [Compound 70t, (6S,12aR)-6-Benzo[1,2,5]thiadiazol-5-yl-2-((R)-1-benzyl-pyrrolidin-3-yl)-2,3,6,7,12,12a-hexahydro-pyrazino[1',2':1,6] pyrido[3,4-b]indole-1,4-dione], for which the IC50 came out at 0.7 µg/mL (≈ 1.28 µM) in experiment [1] (setting [3]) and 0.5 µg/mL (≈ 0.911 µM) with P. falciparum K1 strain (K1, read-out: IC50 K1).
In the same order, the values of `O=C1[C@H]2Cc3c([nH]c4ccccc34)[C@H](c3ccc(Cl)nc3)N2C(=O)CN1[C@@H]1CCN(Cc2ccccc2)C1` [Compound 84t, (6S,12aR)-2-((R)-1-Benzyl-pyrrolidin-3-yl)-6-(6-chloro-pyridin-3-yl)-2,3,6,7,12,12a-hexahydro-pyrazino[1',2':1,6] pyrido[3,4-b]indole-1,4-dione] are 0.09 µg/mL (≈ 0.171 µM) and 1.03 µg/mL (≈ 1.96 µM).
In the same order, the values of `O=C1[C@H]2Cc3c([nH]c4ccccc34)[C@H](Cc3ccccc3)N2C(=O)CN1C1CCN(Cc2ccccc2)CC1` [Compound 89t, (6S,12aR)-6-Benzyl-2-(1-benzyl-piperidin-4-yl)-2,3,6,7,12,12a-hexahydro-pyrazino[1',2':1,6]pyrido[3,4-b]indole-1,4-dione] are 4.17 µg/mL (≈ 8.04 µM) and 2.47 µg/mL (≈ 4.76 µM).
Consider `O=C1[C@H]2Cc3c([nH]c4ccccc34)[C@@H](c3ccccc3)N2C(=O)CN1C1CCN(Cc2ccccc2)CC1` [Compound 90, (6R,12aR)-2-(1-Benzyl-piperidin-4-yl)-6-phenyl-2,3,6,7,12,12a-hexahydro-pyrazino[1',2':1,6]pyrido[3,4-b]indole-1,4-dione], for which the IC50 was found to be 0.48 µg/mL (≈ 0.951 µM) in experiment [1] (setting [3]) and 0.3 µg/mL (≈ 0.594 µM) in the experiment on P. falciparum K1 strain (K1, read-out: IC50 K1).
For the compound `Cn1ccnc1CN1CCC(N2CC(=O)N3[C@H](Cc4c([nH]c5ccccc45)[C@@H]3Cc3ccccc3)C2=O)CC1` [Compound 91t, (6S,12aR)-6-Benzyl-2-[1-(1-methyl-1H-imidazol-2-ylmethyl)-piperidin-4-yl]-2,3,6,7,12,12a-hexahydro-pyrazino-[1',2':1,6]pyrido[3,4-b]indole-1,4-dione], the IC50 in experiment [1] (setting [3]) stood at 4.13 µg/mL (≈ 7.9 µM); with P. falciparum K1 strain (K1, read-out: IC50 K1), 4.07 µg/mL (≈ 7.79 µM).
